According to patent US20080188524A1, “Methods of treating pain” (priority 2006, published 2008):
Values joined by “and” are separate entries in the source; they are usually repeats but may differ in a detail not shown here. Equal entries are not always repeated. “Also recorded” adds a separate entry of the source.

Key:
[1] = test system: carrageenan-treated mice (paw edema); assay: Carrageenan assay in mice, paw edema; format: in vivo; settings: within the observation period, all treated animals
Procedure: For the carrageenan assay a subcutaneous injection of 25 μl of 1% carrageenan (in saline) into a single hind paw (ipsi-lateral paw) of mice is applied. Subsequent inflammation results in long lasting swelling and hypersensitivity (against mechanical and thermal stimuli) of the paw. The carrageenan assay is a standard laboratory assay used to predict anti-inflammatory activity of test compounds. Paw edema measurements and Hargreaves Assay (withdrawal of paws due to thermal stimulation via a light source) are used for read out. The model of carrageenan induced paw edema is a standard laboratory assay used to predict anti-inflammatory activity and reduction of inflammation-induced pain perception of respective compounds. The following protocol describes one possible way to conduct the experiment. The basic measurement constitutes in the measurement of edema and mechanical as well as thermal hypersensitivity in response to irritants, such as carrageenan. […] Paw edema induced by carrageenan injection are detected by increased paw size measured from dorsal to plantar at the metatarsus region of the injected (ipsi-lateral) paws. Sizes of ipsi- and contra-lateral paws serve as surrogate markers for inflammation and are measured at several time points after carrageenan injection: before injection (-1), 2 […] […]

[2] = test system: LPS or SEB induced TNF α in human whole blood; assay: tissue or blood; format: cell-based
[3] = test system: SNI mice (mechanical allodynia); assay: Spared nerve injury (SNI) model, von Frey assay; format: in vivo, mice (strain C3HeB/FeJ); settings: 30 mg/kg i.p., day 21 post SNI
Source text: The spared nerve injury model (SNI model, as developed by Decosterd and Woolf (2000), see FIG. 1) is characterized by the induction of clinically relevant nerve lesions and after surgical intervention, subsequent behavioral experiments (e.g., von Frey Assay). Said model constitutes a common nerve injury model which consists of ligation and section of two branches of the sciatic nerve (namely tibial and common peroneal nerves) leaving the sural nerve intact. The SNI model results in early (less than 24 hours), prolonged and substantial changes in mechanical and cold sensitivity that closely mimic the features of clinical neuropathic pain. […] As outlined above, the spared nerve injury (SNI) model (see FIG. 1) involves a lesion of two of the three terminal branches of the sciatic nerve (tibial and common peroneal nerves) of experimental animals, leaving the sural nerve intact. SNI results in mechanical and thermal allodynia in the non-injured sural nerve skin territory (Decosterd and Woolf, Pain 2000; 87:149-158. (2) Tsujino et al., Mol. Cel. Neurosci. 2000; 15:170-182). Wildtype mice (strain […]/FeJ) (age, sex and weight matched) are anesthetized with Hypnorm (0.315 mg/ml fentanyl citrate +10 mg/ml fluanisone; Janssen)/Hypnovel (5 mg/ml midazolam; Roche Applied Sciences)/water at a ratio of 1:1:2 at 4 μl/g prior to surgical preparation. Subsequently, an incision is made under aseptic precautions in the ipsi-lateral right hind leg of all mice just above the level of the knee, exposing the three terminal branches of the sciatic nerve: the common peroneal, tibial, and sural nerves. The common peroneal and tibial nerves are ligated tightly with 7/0 silk and sectioned distal to the ligation removing 2 mm of distal nerve stump. The sural branch remains untouched during the procedure (denoted herein “SNI ipsi”). […] Reflex nociceptive responses to mechanical stimulation were measured in a von Frey assay 30 min after each injection. […] Mechanical thresholds of SNI mice are quantified using the up-down method based on Chaplan et al. (1994) and Malmberg and Basbaum (1998). […]

[4] = test system: TNFα and IL6 expression in LPS induced THP-1 macrophages; assay: In vitro THP-1 assay, LPS-induced cytokine expression (ELISA); format: cell-based, human
Procedure: The human THP-1 cell line can be utilized as an in vitro model of cytokine expression as mediated by Lipopolysaccharide (LPS) or Tumor Necrosis Factors [TNFα]. Monocytic THP-1 cells (ATCC; TIB-202) can be differentiated into macrophage-like cells expressing pro-inflammatory cytokines like TNFα, IL6 and IL1β upon induction with LPS or by TNFα (autocrine induction) itself. THP-1 cells are grown in modified RPMI-1640medium (ATCC, Cat. No. 30-2001) supplemented with 10% FCS and 1% Pen/Strep. For cytokine inhibition assays, cells are seeded at a density of 5×10^5 cells/ml into 6-well plates in standard growth medium supplemented with 100 ng/ml PMA (Sigma, P1585) to induce differentiation into macrophage-like cells. After 24 hours, the medium is replaced with standard growth medium (without PMA) and the cells are incubated for another 48 hours to complete differentiation. […] Cells are incubated for 60 min with compounds prior to stimulation with 100 ng/ml LPS (Sigma, L2630) for another 4-48 hours. Supernatants are collected and assayed immediately for cytokine expression, e.g. for TNFα, IL-6 and IL-1b using commercially available sandwich ELISA assays (eBioscience, Cat. No 88-7346, 88-7066, 88-7010) or kept frozen at […] until evaluation. Concentrations of TNFα, IL6 and IL1β within the cell culture supernatants are measured by using commercial ELISA Kits (eBioscience) according to the manufacturer's instructions. CDK-inhibitory compounds according to any one of general Formula I, II or III are administered to differentiated THP-1 cells in triplicates as described above (see section 2.). After 60 min of pre-incubation with test or reference compound (SB203580, a p38 inhibitor and BMS345541, an IKK-inhibitor) alone, cells are stimulated with LPS. After incubation for 4-48 h, supernatants are collected and ELISA based determinations of cytokine supernatant concentrations are performed as described in section 3, supra. […] After 60 min of pre-incubation with test or reference compound (a p38 inhibitor and an IKK-inhibitor, respectively) alone, cells were stimulated with LPS. […]

[5] = LPS-stimulated differentiated THP-1 cells, ELISA

## CC(C)(C)c1cnc(CSc2cnc(NC(=O)C3CCNCC3)s2)o1 [compound #16 of Table 1, N-[5-[[[5-(1,1-dimethylethyl)-2-oxazolyl]-methyl]thio]-2-thiazolyl]-4-piperidinecarboxamide]
[1]
  ipsi-lateral paw edema compared to vehicle control group: reduced paw edema
[2]
  reduction of TNF α levels: 89% and 85% and 78%
[2]; Homo sapiens, read-out: IC50 (TNF α reduction), deduced from the data
  IC50: < 500 nM
[3]; 30 min prior to von Frey measurement, ipsi-lateral paw
  effect on mechanical allodynia of SNI mice (von Frey): hypoalgesic effect; also recorded: significant amelioration of allodynia
[3]; contra-lateral paw
  contra-lateral paws, effect of pharmacological treatment (von Frey): unaffected
[3]; ipsi-lateral paw, all treated animals
  von Frey threshold values: significant increase of threshold values
[4]; 3 μM, LPS-induced THP-1 cells
  TNFα signal compared to DMSO (vehicle control): 50%
[4]; [5]
  effect on IL6 protein concentration in the cell supernatant versus vehicle (DMSO): significant inhibitory effect
  effect on TNFα protein concentration in the cell supernatant versus vehicle (DMSO): significant inhibitory effect
